# US4778811A, “Pharmaceutical compositions of 2-methyl-thiazolo[4,5-c]quinoline” (EGIS Gyogyszergyar, priority 1985, dated 1988)
# How the values were obtained:
# [1] = Shuttle-box, acquisition of two-way conditioned avoidance reflex; format: in vivo
# Protocol: The acquisition of a two-way conditioned avoidance reflex (CAR) was analyzed in the shuttle-box during 5 consecutive days. […] It consists of six boxes, each is separated inside by a barrier with a small gate in the middle. […] They were given 100 trials per day. One trial consisted of 15 s intertrial interval, followed by 15 s CS. The last 5 s of CS overlapped the first s of US. At each learning session the number of CAR and intersignal reactions (IR) was automatically counted and evaluated by multiway analysis of variance (ANOVA).
# [2] = Measurement of motility in the shuttle-box; format: in vivo; conditions: 30-minute observation
# Protocol: The apparatus described in the shuttle-box test is used also for investigating the motility of animals. In case of motility experiment all the stimuli are switched off and the animals are allowed to move freely from one compartment of the box to the other. […] Significancy is calculated by Student's test for two means.
# [3] = Effect on basal metabolism (O2 consumption); format: in vivo, rats; conditions: urethane 0.6 g/kg i.p., 30° C.
# Protocol: The O2 consumption of rats was measured by the method of Issekutz and Issekutz (1952) at constant temperature (30° C.).
# O2 consumption of the animals was expressed in ml/h and calculated for body surface, and given finally in ml/h/dm^2. Following injection of urethane and the basal O2 consumption was measured during 30 minutes. This was followed by the injection of the test substance and O2 consumption was registered immediately afterwards. The difference between the highest O2 consumption and the basal value was expressed in percent.
# O2 consumption of the animals was calculated according to the following equation: [formula] V=2000 cm^3 P=pressure fall (mmHg)
# T=period of measurement (h)
# O2 consumption was calculated for body surface and expressed as ml/dm^2 /h. Body surface was calculated on the basis of the "Diack" formula: […]
structure (smiles),measurement,setting,value
"Cc1nc2cnc3ccccc3c2s1.Cl [A compound, 2-methyl-thiazolo[4,5-c]quinoline-hydrochloride]","acquisition of conditioned reflex, number of positive responses (F)","[1]; 5 mg/kg s.c., day 1",17.8
same,number of intersignal reactions (IR),"[1]; 5 mg/kg s.c., day 1",9.5
same,number of negative responses (-f),"[1]; 5 mg/kg s.c., day 1",14.4
same,"acquisition of conditioned reflex, number of positive responses (F)","[1]; 5 mg/kg s.c., day 2",29.6
same,number of intersignal reactions (IR),"[1]; 5 mg/kg s.c., day 2",8.9
same,number of negative responses (-f),"[1]; 5 mg/kg s.c., day 2",23.0
same,"acquisition of conditioned reflex, number of positive responses (F)","[1]; 5 mg/kg s.c., day 3",24.3
same,number of intersignal reactions (IR),"[1]; 5 mg/kg s.c., day 3",3.2
same,number of negative responses (-f),"[1]; 5 mg/kg s.c., day 3",24.6
same,"acquisition of conditioned reflex, number of positive responses (F)","[1]; 5 mg/kg s.c., day 4",23.0
same,number of intersignal reactions (IR),"[1]; 5 mg/kg s.c., day 4",2.9
same,number of negative responses (-f),"[1]; 5 mg/kg s.c., day 4",25.4
same,"acquisition of conditioned reflex, number of positive responses (F)","[1]; 5 mg/kg s.c., day 5",29.4
same,number of intersignal reactions (IR),"[1]; 5 mg/kg s.c., day 5",2.3
same,number of negative responses (-f),"[1]; 5 mg/kg s.c., day 5",27.5
same,"acquisition of conditioned reflex, number of positive responses (F)","[1]; 10 mg/kg s.c., day 1",12.0
same,number of intersignal reactions (IR),"[1]; 10 mg/kg s.c., day 1",8.9
same,number of negative responses (-f),"[1]; 10 mg/kg s.c., day 1",70.4
same,"acquisition of conditioned reflex, number of positive responses (F)","[1]; 10 mg/kg s.c., day 2",14.7
same,number of intersignal reactions (IR),"[1]; 10 mg/kg s.c., day 2",7.3
same,number of negative responses (-f),"[1]; 10 mg/kg s.c., day 2",55.3
same,"acquisition of conditioned reflex, number of positive responses (F)","[1]; 10 mg/kg s.c., day 3",7.2
same,number of intersignal reactions (IR),"[1]; 10 mg/kg s.c., day 3",2.7
same,number of negative responses (-f),"[1]; 10 mg/kg s.c., day 3",58.2
same,"acquisition of conditioned reflex, number of positive responses (F)","[1]; 10 mg/kg s.c., day 4",5.5
same,number of intersignal reactions (IR),"[1]; 10 mg/kg s.c., day 4",2.1
same,number of negative responses (-f),"[1]; 10 mg/kg s.c., day 4",66.8
same,"acquisition of conditioned reflex, number of positive responses (F)","[1]; 10 mg/kg s.c., day 5",7.3
same,number of intersignal reactions (IR),"[1]; 10 mg/kg s.c., day 5",2.1
same,number of negative responses (-f),"[1]; 10 mg/kg s.c., day 5",68.2
same,"acquisition of conditioned reflex, number of positive responses (F)","[1]; 25 mg/kg s.c., day 1",7.0
same,number of intersignal reactions (IR),"[1]; 25 mg/kg s.c., day 1",10.7
same,number of negative responses (-f),"[1]; 25 mg/kg s.c., day 1",83.6
same,"acquisition of conditioned reflex, number of positive responses (F)","[1]; 25 mg/kg s.c., day 2",6.6
same,number of intersignal reactions (IR),"[1]; 25 mg/kg s.c., day 2",5.7
same,number of negative responses (-f),"[1]; 25 mg/kg s.c., day 2",85.1
same,"acquisition of conditioned reflex, number of positive responses (F)","[1]; 25 mg/kg s.c., day 3",2.6
same,number of intersignal reactions (IR),"[1]; 25 mg/kg s.c., day 3",4.4
same,number of negative responses (-f),"[1]; 25 mg/kg s.c., day 3",94.3
same,"acquisition of conditioned reflex, number of positive responses (F)","[1]; 25 mg/kg s.c., day 4",1.6
same,number of intersignal reactions (IR),"[1]; 25 mg/kg s.c., day 4",3.8
same,number of negative responses (-f),"[1]; 25 mg/kg s.c., day 4",93.8
same,"acquisition of conditioned reflex, number of positive responses (F)","[1]; 25 mg/kg s.c., day 5",3.1
same,number of intersignal reactions (IR),"[1]; 25 mg/kg s.c., day 5",4.2
same,number of negative responses (-f),"[1]; 25 mg/kg s.c., day 5",95.0
same,motility (spontaneous crossings of the gate),[2],slight motility decreasing effect
same,rate of metabolism / O2 consumption,[3],slightly
